Article PMC4305006 (Chemistry & biology, 2014)
In brackets after ≈: the same amount, converted by molar mass.

Legend:
Type in all cases: cell-based, Mycobacterium tuberculosis
[1] = system: Mtb BioA under-expression strain (BioA-UE); conditions: 90% inhibition, biotin-free Sauton's medium, 14 days
[2] = system: Mtb H37Rv without supplemental biotin; conditions: 90% inhibition, 14 days
[3] = system: Mtb H37Rv with 1 μM supplemental biotin

C=C(CCC(=O)O)c1nc2ccccc2s1 [Compound 13, 4-(benzothiazol-2-yl)pentenoic acid]
MIC90 BioA-UE [1]: 0.7 µM (≈ 0.163 µg/mL) | MIC90 WT -biotin [2]: 2.5 µM (≈ 0.583 µg/mL) | shift of MIC upon addition of biotin [3]: approximately 3 fold | MIC90 WT+biotin ([3]; 90% inhibition, Mtb H37Rv with 1 μM supplemental biotin, 14 days): 8.7 µM (≈ 2.03 µg/mL)
